Results published in PubChem BioAssay AID1963977 (Molecular Pharmacology Branch, DTP, NCI, 2024).

System: 624824-186-R-J3-PDC multicell spheroids, viability
Assay: Anticancer human tumor 624824-186-R-J3-PDC patient-derived colon adenocarcinoma cell line growth inhibition [PI3K]
Conditions: for IC50: curve of first compound; for viability, T/C: stronger effect = lower value
Method in brief: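 Tumor cells were combined with HUVEC and MSCs into spheroids, then dosed with PI3K-inhibitor combinations over half-log ranges capped near clinical Cmax or 10 microM.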

[1] = second compound 0.0316 µM, first compound 0.0316 µM
[2] = second compound 0.0316 µM, first compound 0.1 µM
[3] = second compound 0.1 µM, first compound 0.0316 µM
[4] = second compound 0.1 µM, first compound 0.1 µM
[5] = second compound 0.316 µM, first compound 0.0316 µM
[6] = second compound 0.316 µM, first compound 0.1 µM
[7] = second compound 1 µM, first compound 0.0316 µM
[8] = second compound 1 µM, first compound 0.1 µM
[9] = second compound 3.16 µM, first compound 0.0316 µM
[10] = second compound 3.16 µM, first compound 0.1 µM
[11] = second compound 10 µM, first compound 0.0316 µM
[12] = second compound 10 µM, first compound 0.1 µM
[13] = second compound 0.0316 µM, first compound 0.316 µM
[14] = second compound 0.0316 µM, first compound 1 µM
[15] = second compound 0.0316 µM, first compound 3.16 µM
[16] = second compound 0.0316 µM, first compound 10 µM
[17] = second compound 0.1 µM, first compound 0.316 µM
[18] = second compound 0.1 µM, first compound 1 µM
[19] = second compound 0.1 µM, first compound 3.16 µM
[20] = second compound 0.1 µM, first compound 10 µM
[21] = second compound 0.316 µM, first compound 0.316 µM
[22] = second compound 0.316 µM, first compound 1 µM
[23] = second compound 0.316 µM, first compound 3.16 µM
[24] = second compound 0.316 µM, first compound 10 µM
[25] = second compound 1 µM, first compound 0.316 µM
[26] = second compound 1 µM, first compound 1 µM
[27] = second compound 1 µM, first compound 3.16 µM
[28] = second compound 1 µM, first compound 10 µM
[29] = second compound 3.16 µM, first compound 0.316 µM
[30] = second compound 3.16 µM, first compound 1 µM
[31] = second compound 3.16 µM, first compound 3.16 µM
[32] = second compound 3.16 µM, first compound 10 µM
[33] = second compound 10 µM, first compound 0.316 µM
[34] = second compound 10 µM, first compound 1 µM
[35] = second compound 10 µM, first compound 3.16 µM
[36] = second compound 10 µM, first compound 10 µM
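Note: spheroids exposed to agents for seven days before luminescence read.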
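Throughout, for viability, T/C: luminescent signal used as a stand-in for spheroid viability; percent viability relative to DMSO vehicle control wells taken as 100%.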

SMILES: CC(=O)c1c(C)c2cnc(Nc3ccc(N4CCNCC4)cn3)nc2n(C2CCCC2)c1=O + CC(Nc1ncnc2nc[nH]c12)c1cc2cccc(Cl)c2c(=O)n1-c1ccccc1
- IC50 (second compound 0.0316 µM): > 100 nM
- IC50 (second compound 0.1 µM): > 100 nM
- IC50 (second compound 0.316 µM): > 100 nM
- IC50 (second compound 1 µM): > 100 nM
- IC50 (second compound 3.16 µM): > 100 nM
- IC50 (second compound 10 µM): > 100 nM
- viability, T/C (second compound 0.0316 µM, first compound 0.000316 µM): 107%
- viability, T/C (second compound 0.0316 µM, first compound 0.001 µM): 96.8%
- viability, T/C (second compound 0.0316 µM, first compound 0.00316 µM): 103%
- viability, T/C (second compound 0.0316 µM, first compound 0.01 µM): 113%
- viability, T/C [1]: 99.7%
- viability, T/C [2]: 122%
- viability, T/C (second compound 0.1 µM, first compound 0.000316 µM): 93%
- viability, T/C (second compound 0.1 µM, first compound 0.001 µM): 91.9%
- viability, T/C (second compound 0.1 µM, first compound 0.00316 µM): 106%
- viability, T/C (second compound 0.1 µM, first compound 0.01 µM): 101%
- viability, T/C [3]: 105%
- viability, T/C [4]: 111%
- viability, T/C (second compound 0.316 µM, first compound 0.000316 µM): 94.9%
- viability, T/C (second compound 0.316 µM, first compound 0.001 µM): 102%
- viability, T/C (second compound 0.316 µM, first compound 0.00316 µM): 99.9%
- viability, T/C (second compound 0.316 µM, first compound 0.01 µM): 103%
- viability, T/C [5]: 107%
- viability, T/C [6]: 119%
- viability, T/C (second compound 1 µM, first compound 0.000316 µM): 94.4%
- viability, T/C (second compound 1 µM, first compound 0.001 µM): 103%
- viability, T/C (second compound 1 µM, first compound 0.00316 µM): 102%
- viability, T/C (second compound 1 µM, first compound 0.01 µM): 104%
- viability, T/C [7]: 116%
- viability, T/C [8]: 109%
- viability, T/C (second compound 3.16 µM, first compound 0.000316 µM): 94.6%
- viability, T/C (second compound 3.16 µM, first compound 0.001 µM): 116%
- viability, T/C (second compound 3.16 µM, first compound 0.00316 µM): 113%
- viability, T/C (second compound 3.16 µM, first compound 0.01 µM): 103%
- viability, T/C [9]: 99.2%
- viability, T/C [10]: 110%
- viability, T/C (second compound 10 µM, first compound 0.000316 µM): 97.7%
- viability, T/C (second compound 10 µM, first compound 0.001 µM): 99.8%
- viability, T/C (second compound 10 µM, first compound 0.00316 µM): 94.7%
- viability, T/C (second compound 10 µM, first compound 0.01 µM): 89.5%
- viability, T/C [11]: 90.3%
- viability, T/C [12]: 83%

SMILES: CCCS(=O)(=O)Nc1ccc(F)c(C(=O)c2c[nH]c3ncc(-c4ccc(Cl)cc4)cc23)c1F + CC(Nc1ncnc2nc[nH]c12)c1cc2cccc(Cl)c2c(=O)n1-c1ccccc1
- IC50 (second compound 0.0316 µM): 4910 nM
- IC50 (second compound 0.1 µM): 4920 nM
- IC50 (second compound 0.316 µM): 5070 nM
- IC50 (second compound 1 µM): 4800 nM
- IC50 (second compound 3.16 µM): 4680 nM
- IC50 (second compound 10 µM): 2450 nM
- viability, T/C [1]: 102%
- viability, T/C [2]: 101%
- viability, T/C [13]: 89.4%
- viability, T/C [14]: 98%
- viability, T/C [15]: 76%
- viability, T/C [16]: 7.94%
- viability, T/C [3]: 102%
- viability, T/C [4]: 104%
- viability, T/C [17]: 94.1%
- viability, T/C [18]: 90.5%
- viability, T/C [19]: 78.9%
- viability, T/C [20]: 6.92%
- viability, T/C [5]: 102%
- viability, T/C [6]: 95.2%
- viability, T/C [21]: 108%
- viability, T/C [22]: 91.7%
- viability, T/C [23]: 80.4%
- viability, T/C [24]: 7.81%
- viability, T/C [7]: 99.9%
- viability, T/C [8]: 103%
- viability, T/C [25]: 91.5%
- viability, T/C [26]: 84%
- viability, T/C [27]: 78.2%
- viability, T/C [28]: 7.61%
- viability, T/C [9]: 100%
- viability, T/C [10]: 90.5%
- viability, T/C [29]: 97.1%
- viability, T/C [30]: 81%
- viability, T/C [31]: 74.2%
- viability, T/C [32]: 9.32%
- viability, T/C [11]: 97.4%
- viability, T/C [12]: 74.6%
- viability, T/C [33]: 73.7%
- viability, T/C [34]: 60.5%
- viability, T/C [35]: 56%
- viability, T/C [36]: 11.7%

SMILES: CNC(=O)c1ccc(N2C(=S)N(c3ccc(C#N)c(C(F)(F)F)c3)C(=O)C2(C)C)cc1F + CC(Nc1ncnc2nc[nH]c12)c1cc2cccc(Cl)c2c(=O)n1-c1ccccc1
- IC50 (second compound 0.0316 µM): > 10000 nM
- IC50 (second compound 0.1 µM): > 10000 nM
- IC50 (second compound 0.316 µM): > 10000 nM
- IC50 (second compound 1 µM): > 10000 nM
- IC50 (second compound 3.16 µM): > 10000 nM
- IC50 (second compound 10 µM): > 10000 nM
- viability, T/C [1]: 107%
- viability, T/C [2]: 102%
- viability, T/C [13]: 110%
- viability, T/C [14]: 97.1%
- viability, T/C [15]: 92.8%
- viability, T/C [16]: 102%
- viability, T/C [3]: 97.7%
- viability, T/C [4]: 101%
- viability, T/C [17]: 104%
- viability, T/C [18]: 108%
- viability, T/C [19]: 106%
- viability, T/C [20]: 116%
- viability, T/C [5]: 96.6%
- viability, T/C [6]: 93.3%
- viability, T/C [21]: 105%
- viability, T/C [22]: 94.2%
- viability, T/C [23]: 105%
- viability, T/C [24]: 117%
- viability, T/C [7]: 98.8%
- viability, T/C [8]: 101%
- viability, T/C [25]: 107%
- viability, T/C [26]: 117%
- viability, T/C [27]: 104%
- viability, T/C [28]: 101%
- viability, T/C [9]: 100%
- viability, T/C [10]: 100%
- viability, T/C [29]: 112%
- viability, T/C [30]: 91.5%
- viability, T/C [31]: 108%
- viability, T/C [32]: 107%
- viability, T/C [11]: 99.1%
- viability, T/C [12]: 95.2%
- viability, T/C [33]: 100%
- viability, T/C [34]: 88.1%
- viability, T/C [35]: 93.2%
- viability, T/C [36]: 97.9%

SMILES: Cn1cnc2c(F)c(Nc3ccc(Br)cc3Cl)c(C(=O)NOCCO)cc21 + CC(Nc1ncnc2nc[nH]c12)c1cc2cccc(Cl)c2c(=O)n1-c1ccccc1
- IC50 (second compound 0.0316 µM): 2020 nM
- IC50 (second compound 0.1 µM): 1540 nM
- IC50 (second compound 0.316 µM): 1680 nM
- IC50 (second compound 1 µM): 1280 nM
- IC50 (second compound 3.16 µM): 688 nM
- IC50 (second compound 10 µM): 297 nM
- viability, T/C (second compound 0.0316 µM, first compound 0.00949 µM): 102%
- viability, T/C (second compound 0.0316 µM, first compound 0.03 µM): 87.3%
- viability, T/C (second compound 0.0316 µM, first compound 0.0949 µM): 103%
- viability, T/C (second compound 0.0316 µM, first compound 0.3 µM): 74.2%
- viability, T/C (second compound 0.0316 µM, first compound 0.949 µM): 66.8%
- viability, T/C (second compound 0.0316 µM, first compound 3 µM): 42.2%
- viability, T/C (second compound 0.1 µM, first compound 0.00949 µM): 96.5%
- viability, T/C (second compound 0.1 µM, first compound 0.03 µM): 84.3%
- viability, T/C (second compound 0.1 µM, first compound 0.0949 µM): 101%
- viability, T/C (second compound 0.1 µM, first compound 0.3 µM): 80.8%
- viability, T/C (second compound 0.1 µM, first compound 0.949 µM): 59.8%
- viability, T/C (second compound 0.1 µM, first compound 3 µM): 37.6%
- viability, T/C (second compound 0.316 µM, first compound 0.00949 µM): 95.8%
- viability, T/C (second compound 0.316 µM, first compound 0.03 µM): 98.6%
- viability, T/C (second compound 0.316 µM, first compound 0.0949 µM): 81.3%
- viability, T/C (second compound 0.316 µM, first compound 0.3 µM): 86.1%
- viability, T/C (second compound 0.316 µM, first compound 0.949 µM): 59.2%
- viability, T/C (second compound 0.316 µM, first compound 3 µM): 38.6%
- viability, T/C (second compound 1 µM, first compound 0.00949 µM): 97.4%
- viability, T/C (second compound 1 µM, first compound 0.03 µM): 106%
- viability, T/C (second compound 1 µM, first compound 0.0949 µM): 87.7%
- viability, T/C (second compound 1 µM, first compound 0.3 µM): 80.3%
- viability, T/C (second compound 1 µM, first compound 0.949 µM): 56.4%
- viability, T/C (second compound 1 µM, first compound 3 µM): 31.5%
- viability, T/C (second compound 3.16 µM, first compound 0.00949 µM): 91%
- viability, T/C (second compound 3.16 µM, first compound 0.03 µM): 91.3%
- viability, T/C (second compound 3.16 µM, first compound 0.0949 µM): 80.7%
- viability, T/C (second compound 3.16 µM, first compound 0.3 µM): 67.2%
- viability, T/C (second compound 3.16 µM, first compound 0.949 µM): 43.2%
- viability, T/C (second compound 3.16 µM, first compound 3 µM): 27.4%
- viability, T/C (second compound 10 µM, first compound 0.00949 µM): 101%
- viability, T/C (second compound 10 µM, first compound 0.03 µM): 80.6%
- viability, T/C (second compound 10 µM, first compound 0.0949 µM): 74.3%
- viability, T/C (second compound 10 µM, first compound 0.3 µM): 47.4%
- viability, T/C (second compound 10 µM, first compound 0.949 µM): 31.7%
- viability, T/C (second compound 10 µM, first compound 3 µM): 18.1%
